# Measured values: US20080085855A1, “Perivascular wraps” (Angiotech International AG, priority 2002, published 2008)
# What was measured:
# intimal hyperplasia [1] = experiment: Rat balloon injury carotid artery model, paclitaxel containing mesh; assay type: in vivo; settings: 1×1 cm paclitaxel-containing mesh (345 μg paclitaxel in 50:50 PLG coating on 10:90 PLG mesh), perivascular, 14 days after balloon injury
# Procedure: Wistar rats weighing 400-500 g were anesthetized with 1.5% halothane in oxygen and the left external carotid artery was exposed. An A 2 French Fogarty balloon embolectomy catheter (Baxter, Irvine, Calif.) was advanced through an arteriotomy in the external carotid artery down the left common carotid artery to the aorta. The balloon was inflated with enough saline to generate slight resistance (approximately 0.02 ml) and it was withdrawn with a twisting motion to the carotid bifurcation. The balloon was then deflated and the procedure repeated twice more. This technique produced distension of the arterial wall and denudation of the endothelium. The external carotid artery was ligated after removal of the catheter. The right common carotid artery was not injured and was used as a control.
# Immediately after injury of the left common carotid artery, a 1 cm long distal segment of the artery was exposed and treated with a 1×1 cm paclitaxel-containing mesh. The wound was then closed the animals were kept for 14 days.
# At the time of sacrifice, the animals were euthanized with carbon dioxide and pressure perfused at 100 mmHg with 10% phosphate buffered formaldehyde for 15 minutes. Both carotid arteries were harvested and left overnight in fixative. The fixed arteries were processed and embedded in paraffin wax. […]
# intimal hyperplasia [2] = experiment: Sheep carotid artery bypass graft (ePTFE) model, paclitaxel containing mesh; settings: for Percent Change in Maximal Intimal Thickness / Percent Change in % Stenosis / Percent Change in Intimal Area: vs zero-dose mesh;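 as to all read-outs here: sheep with ePTFE carotid bypass grafts, PLG mesh wrapped at the distal anastomosis, histology of fixed graft and artery sections about 56 days after implantation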
# Procedure: The left and right carotid arteries of anesthetized sheep were exposed by sharp dissection. A tunnel was formed from one carotid artery to the other to accommodate the ePTFE graft. The ePTFE graft was tunneled and trimmed for appropriate length and configuration. Using standard vascular technique, the ePTFE graft was anastomosed end-to-side with running 6-0 polypropylene suture. The angle of the junction between graft and native vessel was approximately 45°. The length of the implanted graft ranged from 9.5-15 cm (average 11 cm).
# Paclitaxel was incorporated into the 2 cm×5 cm PLG mesh in the following doses and animal test groups: Group 1, 0 mg; Group 2, 0.6 mg; Group 3, 1.8 mg; and Group 4, 3.0 mg. The mesh was placed at the distal end of the graft at the anastomosis site. To place the mesh, the long side was pulled under the artery and up around either side of the distal end of the graft. One edge was positioned as close to the heel of the anastomosis as possible. The top edges of the mesh were sewn together with one suture on either side of the graft so that no gaps were left in the circumferential direction. One suture was placed at the proximal end and the other at the distal end of the mesh, and sewn to nearby connective tissue to prevent slippage of the mesh away from the anastomosis (see FIG. 6). The surgical sites were closed in layers with running absorbable sutures. Standard antibiotics and analgesics were administered after surgery for several days as required.
# At approximately 56 days post-graft implant, animals were anesthetized. Contrast media was injected and angiograms performed of the distal graft and artery at the distal anastomosis. Immediately prior to euthanasia, the animals received heparin (150 U/kg, IV) and immediately after euthanasia, the ePTFE graft was rinsed in situ with lactated Ringers solution and perfusion-fixed in situ with 10% neutral buffered formalin (NBF). The specimens were excised en bloc and allowed to immersion fix in 10% NBF at least 24 hours prior to histological processing.
# The fixed specimens were trimmed and mapped accurately for corresponding cross sectional location in reference to the ePTFE graft configuration. […] A total of nine sections were cut at the distal end of the graft: two cut perpendicular to the artery on either side of the anastomosis (A1 and A5), one perpendicular to the artery through the “toe” of the anastomosis (A2), one or two cut through the floor of the anastomosis adjacent to the “toe” (A3 and A4), three cut perpendicular to the graft at its distal end, and one through the center of the graft. Adjacent sections were cut at approximately 3 mm intervals. The specimens were paraffin-embedded, cross-sectioned, and four sets of slides made, two stained with hematoxylin and eosin (H&E), and one each stained with Masson's trichrome and Verhoeff Van Gieson (VVG). These stains were selected for their ability to show tissue cellularity (H&E), collagen, smooth muscle and fibrin (Masson's Trichrome), and elastin (VVG).
# The morphometric analysis system consists of an Olympus BX40 microscope, Optronics Image Sensor DEI-750, Sony HR Trinitron monitor, and PC computer equipped with Media Cybernetics Image-Pro Plus software v.
# [3] = Dose 0.6 (mg in PLG mesh, Group 2), Graft Section 6, approx. 56 days
# [4] = Dose 0.6 (mg in PLG mesh, Group 2), Graft Section 7, approx. 56 days
# [5] = Dose 0.6 (mg in PLG mesh, Group 2), Graft Section 8, approx. 56 days
# [6] = Dose 1.8 (mg in PLG mesh, Group 3), Graft Section 6, approx. 56 days
# [7] = Dose 1.8 (mg in PLG mesh, Group 3), Graft Section 7, approx. 56 days
# [8] = Dose 1.8 (mg in PLG mesh, Group 3), Graft Section 8, approx. 56 days
# [9] = Dose 3.0 (mg in PLG mesh, Group 4), Graft Section 6, approx. 56 days
# [10] = Dose 3.0 (mg in PLG mesh, Group 4), Graft Section 7, approx. 56 days
# [11] = Dose 3.0 (mg in PLG mesh, Group 4), Graft Section 8, approx. 56 days
smiles,measurement,setting,value
"CC(=O)O[C@H]1C(=O)[C@@]2(C)[C@H]([C@H](OC(=O)c3ccccc3)[C@]3(O)C[C@H](OC(=O)[C@H](O)[C@@H](NC(=O)c4ccccc4)c4ccccc4)C(C)=C1C3(C)C)[C@]1(OC(C)=O)CO[C@@H]1C[C@@H]2O [Paclitaxel, paclitaxel]","intimal hyperplasia (histology, FIGS. 3-5)",intimal hyperplasia [1],dramatic reduction in intimal hyperplasia
same,Percent Change in Maximal Intimal Thickness,"intimal hyperplasia [2]; Dose 0.6 (mg in 2 cm×5 cm PLG mesh, Group 2), Graft ""Toe"" Section 2, approx. 56 days",−5%
same,Percent Change in % Stenosis,intimal hyperplasia [2]; [3],−59%^
same,Percent Change in Intimal Area,intimal hyperplasia [2]; [3],−62%^
same,Percent Change in Maximal Intimal Thickness,intimal hyperplasia [2]; [3],−71%^2
same,Percent Change in % Stenosis,intimal hyperplasia [2]; [4],−66%^2
same,Percent Change in Intimal Area,intimal hyperplasia [2]; [4],−67%^2
same,Percent Change in Maximal Intimal Thickness,intimal hyperplasia [2]; [4],−65%
same,Percent Change in % Stenosis,intimal hyperplasia [2]; [5],−75%^2
same,Percent Change in Intimal Area,intimal hyperplasia [2]; [5],−77%
same,Percent Change in Maximal Intimal Thickness,intimal hyperplasia [2]; [5],−59%
same,Percent Change in Maximal Intimal Thickness,"intimal hyperplasia [2]; Dose 1.8 (mg in PLG mesh, Group 3), Graft ""Toe"" Section 2, approx. 56 days",−28%
same,Percent Change in % Stenosis,intimal hyperplasia [2]; [6],−84%^2
same,Percent Change in Intimal Area,intimal hyperplasia [2]; [6],−85%^2
same,Percent Change in Maximal Intimal Thickness,intimal hyperplasia [2]; [6],−77%^2
same,Percent Change in % Stenosis,intimal hyperplasia [2]; [7],−85%^2
same,Percent Change in Intimal Area,intimal hyperplasia [2]; [7],−85%^2
same,Percent Change in Maximal Intimal Thickness,intimal hyperplasia [2]; [7],−71%^2
same,Percent Change in % Stenosis,intimal hyperplasia [2]; [8],−75%^2
same,Percent Change in Intimal Area,intimal hyperplasia [2]; [8],−76%
same,Percent Change in Maximal Intimal Thickness,intimal hyperplasia [2]; [8],−63%
same,Percent Change in Maximal Intimal Thickness,"intimal hyperplasia [2]; Dose 3.0 (mg in PLG mesh, Group 4), Graft ""Toe"" Section 2, approx. 56 days",−34%
same,Percent Change in % Stenosis,intimal hyperplasia [2]; [9],−81%^2
same,Percent Change in Intimal Area,intimal hyperplasia [2]; [9],−82%^2
same,Percent Change in Maximal Intimal Thickness,intimal hyperplasia [2]; [9],−74%^2
same,Percent Change in % Stenosis,intimal hyperplasia [2]; [10],−79%^2
same,Percent Change in Intimal Area,intimal hyperplasia [2]; [10],−80%^2
same,Percent Change in Maximal Intimal Thickness,intimal hyperplasia [2]; [10],−69%
same,Percent Change in % Stenosis,intimal hyperplasia [2]; [11],−86%^
same,Percent Change in Intimal Area,intimal hyperplasia [2]; [11],−86%
same,Percent Change in Maximal Intimal Thickness,intimal hyperplasia [2]; [11],−83%^2
same,"MIT (maximal neointimal thickness), group average ±SD","intimal hyperplasia [2]; Section 2 (""toe"" section), high dose (3.0 mg), approx. 56 days",0.54±0.23 mm
same,MIT less than controls,"intimal hyperplasia [2]; Section 2 (""toe"" section), high dose (3.0 mg), not statistically significant (p>0.05)",34%
same,"MIT (maximal neointimal thickness), group average ±SD","intimal hyperplasia [2]; Section 2 (""toe"" section), low dose (0.6 mg), approx. 56 days",0.78±0.30 mm
same,MIT less than controls,"intimal hyperplasia [2]; Section 2 (""toe"" section), low dose (0.6 mg), not statistically significant (p>0.05)",5%
same,"MIT (maximal neointimal thickness), group average ±SD","intimal hyperplasia [2]; Section 2 (""toe"" section), mid dose (1.8 mg), approx. 56 days",0.59±0.14 mm
same,MIT less than controls,"intimal hyperplasia [2]; Section 2 (""toe"" section), mid dose (1.8 mg), not statistically significant (p>0.05)",28%
same,mechanical integrity of the anastomosis (leakage),intimal hyperplasia [2]; dose range tested (0.6-3.0 mg in mesh),does not affect the mechanical integrity of the anastomosis
same,Intraluminal endothelialization,intimal hyperplasia [2]; doses tested (0.6-3.0 mg in mesh),not affected
same,lesions causing luminal narrowing at the distal end of the graft,"intimal hyperplasia [2]; lowest paclitaxel dose, 0.6 mg",marked and signifimayt reduction
same,reduction in stenosis,"intimal hyperplasia [2]; paclitaxel groups (0.6, 1.8, 3.0 mg), sections 6, 7, 8, 7 of 9 values significantly lower than controls (p≦0.05)",70-80%
same,IA (neointimal area) reduced,"intimal hyperplasia [2]; paclitaxel groups (0.6, 1.8, 3.0 mg), sections 6, 7, 8, vs control group",70-80%
same,"MIT (maximal neointimal thickness), group average ±SD","intimal hyperplasia [2]; section 6 (first full cross section of graft adjacent to the distal anastomosis), low dose (0.6 mg), p<0.05",0.38±0.12 mm
same,"MIT (maximal neointimal thickness), group average ±SD","intimal hyperplasia [2]; section 6, high dose (3.0 mg), p<0.05",0.34±0.20 mm
same,"MIT (maximal neointimal thickness), group average ±SD","intimal hyperplasia [2]; section 6, medium dose (1.8 mg), p<0.05",0.31±0.29 mm
same,MIT less than controls,"intimal hyperplasia [2]; sections 7 and 8, all the paclitaxel groups (0.6, 1.8, 3.0 mg)",approximately 70%
